Test results as given in patent US11912652B1, “8-(2-hydroxybenzylideneamino)naphthalene-1,3-disulfonic acid as an antioxidant compound” (KING FAISAL UNIVERSITY, priority 2023, dated 2024).

Assay: DPPH (2,2-diphenyl-1-picrylhydrazyl) radical scavenging antioxidant test
Format: biochemical
Details: 517 nm; for Inhibition (radical scavenging inhibition): 0.2 mL DPPH (0.75 mM), compound 3 μM in ethanol, 30 minutes in the dark
Experimental: The antioxidant properties of the 8-(2-hydroxybenzylideneamino)naphthalene-1,3-disulfonic acid compound were studied by adding 0.2 mL DPPH (0.75 mM)) to 8-(2-hydroxybenzylideneamino)naphthalene-1,3-disulfonic acid (III) (3 μM) in ethanol. After 30 minutes of incubation in the dark, the absorbance was read against a blank at 517 nm. Ascorbic acid (vitamin C) was used as standard antioxidants (positive control). A blank sample was prepared by 0.2 ml of DPPH in 3 mL ethanol. A negative control sample was run using ethanol instead of the sample. The radical scavenging inhibition was calculated using the following equation: […]
The antioxidant activity for the synthesized compound is listed in Table 1, using Vitamin C as a reference.

SMILES | Inhibition (radical scavenging inhibition) | antioxidant potential compared to vitamin C (in words) (DPPH in vitro test, vitamin C as positive control)
O=S(=O)(O)c1cc(S(=O)(=O)O)c2c(/N=C/c3ccccc3O)cccc2c1 [Product III, 8-(2-hydroxybenzylideneamino)naphthalene-1,3-disulfonic acid] | 54% | high potential as an antioxidant
O=C1O[C@H]([C@@H](O)CO)C(O)=C1O [vit c, Ascorbic acid, reference compound] | 74% | –
